Reference: publication doi:10.1101/2020.07.09.196246v1 (biorxiv, 2020)

How the values were obtained:
[1] = target: T1, zebrafish α9α10 (1:2) nAChR (Danio rerio, UniProt A0A8M9PIT7+Q1LY90); experiment: two-electrode voltage clamp, peak inward current, Hill fit; format: cell-based
T1 sequence (A0A8M9PIT7 20-580): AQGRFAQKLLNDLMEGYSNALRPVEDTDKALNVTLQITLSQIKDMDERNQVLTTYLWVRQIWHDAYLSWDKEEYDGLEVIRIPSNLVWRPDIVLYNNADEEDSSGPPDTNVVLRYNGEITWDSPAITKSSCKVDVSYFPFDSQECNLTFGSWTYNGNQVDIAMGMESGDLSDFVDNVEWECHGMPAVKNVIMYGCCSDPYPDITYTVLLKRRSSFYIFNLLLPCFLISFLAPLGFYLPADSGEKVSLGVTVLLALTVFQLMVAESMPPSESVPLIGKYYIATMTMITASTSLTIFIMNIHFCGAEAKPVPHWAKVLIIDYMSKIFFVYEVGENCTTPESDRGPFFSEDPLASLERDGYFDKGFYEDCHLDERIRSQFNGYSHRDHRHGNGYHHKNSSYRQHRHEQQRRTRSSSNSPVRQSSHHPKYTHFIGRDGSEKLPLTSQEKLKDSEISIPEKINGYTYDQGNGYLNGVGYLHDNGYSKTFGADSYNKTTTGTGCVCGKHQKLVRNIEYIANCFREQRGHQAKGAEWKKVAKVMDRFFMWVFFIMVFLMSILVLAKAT
T1 sequence (Q1LY90 26-527): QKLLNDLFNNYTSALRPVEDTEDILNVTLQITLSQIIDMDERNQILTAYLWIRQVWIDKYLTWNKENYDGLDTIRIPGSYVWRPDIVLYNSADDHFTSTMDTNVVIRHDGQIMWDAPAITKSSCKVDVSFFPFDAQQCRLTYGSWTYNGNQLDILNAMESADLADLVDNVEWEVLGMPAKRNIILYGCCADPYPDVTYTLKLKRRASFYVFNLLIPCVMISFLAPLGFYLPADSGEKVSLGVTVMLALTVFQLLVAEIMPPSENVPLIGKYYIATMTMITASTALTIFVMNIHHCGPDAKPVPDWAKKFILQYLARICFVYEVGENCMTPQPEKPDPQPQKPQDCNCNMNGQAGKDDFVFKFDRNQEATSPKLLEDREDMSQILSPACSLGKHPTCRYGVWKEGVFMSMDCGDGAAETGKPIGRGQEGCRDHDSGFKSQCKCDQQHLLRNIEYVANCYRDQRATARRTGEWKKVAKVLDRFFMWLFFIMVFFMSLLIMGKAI

[2] = target: T2, zebrafish α9 nAChR (homomeric) (Danio rerio, UniProt A0A8M9PIT7); experiment: as above; format: cell-based
T2 sequence (A0A8M9PIT7 20-580): T1 sequence (A0A8M9PIT7 20-580)

EC50 [1]: 437 µM | EC50 [2]: 11.7 µM
SMILES: CC(=O)OCC[N+](C)(C)C [ACh, acetylcholine]
